# In article PMC10455244, “Alpha-Mangostin: A Potent Inhibitor of TRPV3 and Pro-Inflammatory Cytokine Secretion in Keratinocytes” (International Journal of Molecular Sciences, 2023):
# Biological target: T1, TRPV3 (Homo sapiens, UniProt Q8NET8)
# T1 sequence (Q8NET8 1-790): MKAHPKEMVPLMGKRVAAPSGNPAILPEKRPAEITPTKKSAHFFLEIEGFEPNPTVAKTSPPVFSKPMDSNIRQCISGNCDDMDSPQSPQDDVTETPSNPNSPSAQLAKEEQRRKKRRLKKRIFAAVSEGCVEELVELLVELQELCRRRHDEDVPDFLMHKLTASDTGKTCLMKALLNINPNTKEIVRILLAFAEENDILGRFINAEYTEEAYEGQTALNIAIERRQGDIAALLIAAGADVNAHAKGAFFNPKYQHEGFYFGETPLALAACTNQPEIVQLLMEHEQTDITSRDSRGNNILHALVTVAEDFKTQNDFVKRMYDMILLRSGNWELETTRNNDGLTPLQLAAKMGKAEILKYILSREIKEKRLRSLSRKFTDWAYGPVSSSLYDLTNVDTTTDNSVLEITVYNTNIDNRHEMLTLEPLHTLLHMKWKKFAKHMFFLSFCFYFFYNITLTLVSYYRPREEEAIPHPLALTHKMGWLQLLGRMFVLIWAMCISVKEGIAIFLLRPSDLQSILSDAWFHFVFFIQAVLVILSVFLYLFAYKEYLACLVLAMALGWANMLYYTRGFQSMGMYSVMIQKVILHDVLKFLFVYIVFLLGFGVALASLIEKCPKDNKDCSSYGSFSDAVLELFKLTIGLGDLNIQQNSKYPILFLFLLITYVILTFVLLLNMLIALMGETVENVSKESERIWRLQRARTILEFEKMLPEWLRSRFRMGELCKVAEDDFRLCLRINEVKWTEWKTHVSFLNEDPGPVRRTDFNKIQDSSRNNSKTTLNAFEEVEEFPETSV
# Test: Fura-2 calcium imaging, carvacrol-induced Ca2+ increase in NHEK
# Format: cell-based
# Parameters: host or cells: NHEK
# Conditions: 300 µM carvacrol, keratinocytes (NHEK), control 0.029 ± 0.003
# Experimental: Since the TRPV3-mediated calcium influx is reported to contribute to proper skin function, we investigated whether alpha-mangostin inhibits the intracellular calcium increase induced by carvacrol in hTRPV3-overexpressing HEK 293T cells and keratinocytes. […] In hTRPV3-overexpressing HEK 293T cells, ∆(F340/F380) decreased by approximately 25% and 70% upon exposure to 0.3 µM and 3 µM alpha-mangostin, respectively (Figure 3A, 0.424 ± 0.032 vs. 0.316 ± 0.030 and 0.144 ± 0.006, respectively).
# Figure 3 Alpha-mangostin (α-MG) inhibited TRPV3-mediated intracellular calcium increase. Cells were perfused with solutions containing 0.3 µM, 3 µM alpha-mangostin or 10 µM 74a before the addition of 300 µM carvacrol (red, green, and blue lines, respectively). […]
# Fura-2 AM (Thermo Fisher Scientific) was utilized as a fluorescent indicator to measure calcium signal, as described previously. […] To measure the cytosolic Ca^2+ level, a sequential excitation of Fura-2 is performed at 340 nm and 380 nm; then, the emission signals resulting from each excitation wavelength are measured and the ratio of these signals is calculated. […] Samples were excited using a wavelength of 380 nm for 20 ms, followed by 340 nm for 100 ms, and fluorescence at 510 nm was recorded. Recorded data were then analyzed using NIS-Element AR Version 5.00.00 (Nikon Instruments, Melville, NY, USA). […]
smiles,measurement,setting,value
COc1c(O)cc2oc3cc(O)c(CC=C(C)C)c(O)c3c(=O)c2c1CC=C(C)C [Alpha-mangostin],Change in F340/F380,0.3 µM,0.019 ± 0.002
same,Change in F340/F380,3 µM,0.010 ± 0.002
